Legend:
[1] = system: reserpine-induced hypothermia / blood pressure; assay: Quotient ED 50% antidepressive action / ED 20% hypertensive action; format: in vivo, mouse / rat; conditions: hypertensive test i.v.
Excerpt: This is evident from the fact that the quotient defined above differs wtih respect to the comparative compounds. […] This arises, inter alia, from the fact that the hypertensive ED 20 constitutes the denominator of the quotient. It is possible that the unforeseeable selective direction of action is attributable to the special substitution,in accordance with the invention, at the 4-imino group.

[2] = system: reserpine-induced hypothermia; assay: Antidepressive action: reserpine antagonism, inhibition of reserpine-induced hypothermia of the mouse; format: in vivo, male Swiss mice; conditions: Table 1
Experimental: Antidepressants effect dose-dependent inhibition of this hypotherma. The test substances are administered orally 60 minutes before the administration of reserpine.
The dose which effects 50% inhibition of the reserpine-induced hypothermia is determined, as the ED 50%, from the linear regression between log dose (mg/kg) and relative reduction in hypothermia (Δ%).

blood pressure = assay: Effect on the blood pressure: hypertensive action, pithed rat; format: in vivo, male Sprague-Dawley rats; conditions: Table 1, i.v. administration
Experimental: The measurement of the blood pressure in the carotid artery was carried out by means of Statham transducers. The substance was administered in the jugular vein (as an aqueous solution, 1 ml/kg) or intraperitoneally (as a tragacanth suspension, 2 ml/kg). The ED 20% is determined as the dose which increases the blood pressure by 20%.

With `CCNC(=S)N=c1ccn(-c2ccccc2)nc1` [Example 87, 1,4-dihydro-4-(ethylthiocarbamyl)-imino-1-phenylpyridazine] the “Q (quotient ED 50% antidepressive action/ED 20% hypertensive action)” value [1] was less than 2.91, the ED50 ([2]; Mus musculus, oral administration 60 min before reserpine, dose based on the base, read-out: ED 50% (dose which inhibits the reserpine-induced hypothermia of the mouse by 50%)) was 2.91 mg/kg and the “R.A. (relative activity), reserpine antagonism” value ([2]; amezinium = 1.00, oral) was 0.25. For the same molecule, the ED20 (blood pressure; Rattus norvegicus, iv, dose based on the base, read-out: ED 20% hypertensive action (dose which increases the blood pressure of the pithed rat by 20%)) was greater than 1 mg/kg and the “R.A. (relative activity), hypertensive action” value (blood pressure; amezinium = 1.00) was less than 0.05.
